Patent US7794994B2 (Kemeta, LLC, priority 2001, dated 2010)

Legend:
S-ADH from C. boidinii = experiment: S-ADH spectrophotometric assay, C. boidinii S-ADH; type: biochemical, Candida boidinii; conditions: pH 7.6, 5 mM substrate; for Relative S-ADH Activity (%) C. boidinii, ketone reduction: ketone reduction rates, 0.2 mM NADH, acetone = 100; for Relative S-ADH Activity (%) C. boidinii, alcohol oxidation: alcohol oxidation rates, 0.2 mM NAD+, 2-propanol = 100
Procedure: Assays were performed in 2 mL quartz cuvettes and contained NAD(H) (0.2 mM), potassium phosphate buffer (25 mM), and a source of enzyme (cell-free extracts, column fractions, or purified enzyme) in a total reaction volume of 1 mL at pH 6.2 ([…]) at 30° C. Assays were pre-incubated for 1.5 min. at 30° C. with all assay components except substrate. […]

S-ADH from T. brockii = target: T1, S-ADH from T. brockii (Thermoanaerobacter brockii, UniProt P14941); experiment: S-ADH spectrophotometric assay, T. brockii S-ADH; type: biochemical, Thermoanaerobium brockii; conditions: for Relative S-ADH Activity (%) T. brockii, ketone reduction: ketone reduction rates, pH 6.2, 2.5 mM substrate, 0.2 mM NADPH, acetone = 100
T1 sequence (P14941 1-352): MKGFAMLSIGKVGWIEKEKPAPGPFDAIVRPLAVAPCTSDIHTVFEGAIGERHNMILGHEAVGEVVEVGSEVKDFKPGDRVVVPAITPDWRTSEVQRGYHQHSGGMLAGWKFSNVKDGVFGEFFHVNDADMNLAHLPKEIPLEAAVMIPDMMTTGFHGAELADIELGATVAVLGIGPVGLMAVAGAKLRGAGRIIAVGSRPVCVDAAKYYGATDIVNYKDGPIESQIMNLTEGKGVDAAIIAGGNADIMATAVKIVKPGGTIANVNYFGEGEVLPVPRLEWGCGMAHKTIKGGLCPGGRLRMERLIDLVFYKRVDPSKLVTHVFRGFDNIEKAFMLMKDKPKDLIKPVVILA
Procedure: […] Assays were pre-incubated for 1.5 min. at 30° C. with all assay components except substrate. Assays were initiated by addition of substrate (2.5 mM) and monitored over time by measuring the change in absorbance at 340 nm (∈340 of 6.22 mM^−1·cm^−1 for NADH).

[1] = system: S-ADH from X. autotrophicus strain Py2; experiment: Secondary alcohol dehydrogenase NADH oxidation spectrophotometric assay; type: biochemical, Xanthobacter autotrophicus strain Py2; conditions: for Relative S-ADH Activity (%) X. Py2, ketone reduction: ketone reduction rates, pH 6.2, 2.5 mM substrate, 0.2 mM NADH, acetone = 100; for specific activity, alcohol oxidation: at pH 7.8; for Relative S-ADH Activity (%) X. Py2, alcohol oxidation: alcohol oxidation rates, pH 7.6, 2.5 mM substrate, 0.2 mM NAD+, 2-propanol = 100, NA = no activity detected
Procedure: (§1) Assays were performed in 2 mL quartz cuvettes and contained NAD(H) (0.2 mM), potassium phosphate buffer (25 mM), and a source of enzyme (cell-free extracts, column fractions, or purified enzyme) in a total reaction volume of 1 mL at pH 6.2 ([…]) at 30° C. Assays were pre-incubated for 1.5 min. at 30° C. with all assay components except substrate. Assays were initiated by addition of substrate (2.5 mM) and monitored over time by measuring the change in absorbance at 340 nm (∈340 of 6.22 mM^−1·cm^−1 for NADH).
Data analysis. Kinetic constants (Km and Vmax) were calculated by fitting initial rate data to the Michaelis-Menten equation and using the software KaleidaGraph Fourth Edition, (Synergy Software, Reading, Pa.).

S-ADH from strain IP-1 = experiment: S-ADH spectrophotometric assay, partially purified S-ADH of isolate IP-1; type: biochemical, isopropanol-grown bacterial strain TDCC IP-1; conditions: for Relative S-ADH Activity (%) IP-1, ketone reduction: ketone reduction rates, pH 6.2, 2.5 mM substrate, 0.2 mM NADH, acetone = 100; for Relative S-ADH Activity (%) IP-1, alcohol oxidation: alcohol oxidation rates, pH 7.6, 2.5 mM substrate, 0.2 mM NAD+, 2-propanol = 100, NA = no activity detected
Procedure: Protein purifications. […] Secondary alcohol dehydrogenase (S-ADH) from X. autotrophicus Py2 was purified via the following protocol. Cell-free extracts (380 mL) of isopropanol-grown X. autotrophicus Py2 (150 g) were prepared as described above, and applied to a 5×15 cm column of DEAE-Sepharose FAST FLOW (Diethylaminoethyl cross-linked agarose bead material; Catalog number 17-0709-10, Amersham Pharmacia Biotech, Piscataway, N.J.)) equilibrated in buffer A (25 mM MOPS (3-(N-morpholino)propanesulfonic acid), pH 7.6, 5% glycerol, 1 mM dithiothreitol) at a flow rate of 10 mL/min. After loading, the column was washed with […] buffer A and developed with a 2400 mL linear gradient of 90-290 mM KCl in buffer A. Fractions containing S-ADH activity were pooled and dialyzed against 2 L of 25 mM potassium phosphate (pH 6.2) containing 5% glycerol (buffer B) for 16 h at 4° C. […] After washing the column with 30 mL of buffer B, S-ADH was eluted with 20 mL of buffer A containing 10 mM NAD^+. Fractions containing S-ADH were then dialyzed against 2 L of buffer A for 16 h at 4° C., concentrated by ultrafiltration (using a YM30 ultrafiltration membrane; catalog no. 13722, from Millipore, Bedford, Mass.), and frozen in liquid nitrogen. Partially purified S-ADH from bacterial screen cultures was prepared as follows: cell-free extracts from 1 to 5 g of cell paste were prepared as described above and applied to a 5 mL HI TRAP Q column (quaternary, tetraethylammonium, cross-linked agarose bead material for use as an anion exchange matrix; catalog number 17-1153-01, Amersham Pharmacia Biotech) equilibrated in 100 mM MOPS, pH 7.6, containing 5% (v/v) glycerol (buffer C). The column was washed with 10 mL buffer C and developed with a 100 mL linear gradient of 0 to 100 mM NaCl in buffer C. Fractions containing S-ADH activity were pooled, concentrated to 0.5 mL using a 30 kDa MWCO (“molecular weight cut-off”) centrifugal membrane (catalog number UFV4BTK25, Millipore), and stored at −80° C.
as §1

[2] = system: S-ADH from M. vaccae JOB-5; experiment: S-ADH spectrophotometric assay, propane-grown M. vaccae JOB-5; type: biochemical, Mycobacterium vaccae strain JOB-5; conditions: for Relative S-ADH Activity (%) JOB 5, ketone reduction: ketone reduction rates, pH 6.2, 2.5 mM substrate, 0.2 mM NADH, acetone = 100; for Relative S-ADH Activity (%) JOB 5, alcohol oxidation: alcohol oxidation rates, pH 7.6, 2.5 mM substrate, 0.2 mM NAD+, 2-propanol = 100, NA = no activity detected
Procedure: as §1

[3] = target: T2, acetone carboxylase coupled to β-hydroxybutyrate dehydrogenase (Xanthobacter versatilis, UniProt Q8RM03+Q8RM04); experiment: Acetone carboxylase coupled to NADH oxidation spectrophotometric assay; type: biochemical, X. autotrophicus strain Py2; conditions: alternative compounds in coupled enzyme system
T2 construct: host or cells: X. autotrophicus strain Py2 (native organism; enzyme obtained from Prof; S. A. Ensign / purified as previously published)
T2 sequence (Q8RM03 1-776): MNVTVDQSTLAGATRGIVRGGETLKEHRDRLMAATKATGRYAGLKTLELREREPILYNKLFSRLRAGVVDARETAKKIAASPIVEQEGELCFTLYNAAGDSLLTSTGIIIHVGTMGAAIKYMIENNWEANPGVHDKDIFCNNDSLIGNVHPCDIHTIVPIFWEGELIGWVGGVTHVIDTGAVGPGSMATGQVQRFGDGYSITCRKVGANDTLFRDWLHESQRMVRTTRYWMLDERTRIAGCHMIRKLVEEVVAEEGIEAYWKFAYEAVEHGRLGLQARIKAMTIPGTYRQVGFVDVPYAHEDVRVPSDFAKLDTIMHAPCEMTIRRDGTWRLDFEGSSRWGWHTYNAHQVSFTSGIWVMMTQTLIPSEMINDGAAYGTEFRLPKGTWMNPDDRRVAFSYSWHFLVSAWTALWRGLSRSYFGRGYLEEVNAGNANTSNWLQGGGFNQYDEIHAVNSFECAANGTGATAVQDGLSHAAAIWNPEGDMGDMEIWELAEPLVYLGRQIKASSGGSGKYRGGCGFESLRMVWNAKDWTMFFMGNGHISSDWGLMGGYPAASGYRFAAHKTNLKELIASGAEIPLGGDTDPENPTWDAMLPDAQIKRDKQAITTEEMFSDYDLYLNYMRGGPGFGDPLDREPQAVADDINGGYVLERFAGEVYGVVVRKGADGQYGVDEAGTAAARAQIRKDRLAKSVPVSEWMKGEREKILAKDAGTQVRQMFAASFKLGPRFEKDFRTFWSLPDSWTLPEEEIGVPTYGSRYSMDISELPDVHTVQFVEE
T2 sequence (Q8RM04 1-717): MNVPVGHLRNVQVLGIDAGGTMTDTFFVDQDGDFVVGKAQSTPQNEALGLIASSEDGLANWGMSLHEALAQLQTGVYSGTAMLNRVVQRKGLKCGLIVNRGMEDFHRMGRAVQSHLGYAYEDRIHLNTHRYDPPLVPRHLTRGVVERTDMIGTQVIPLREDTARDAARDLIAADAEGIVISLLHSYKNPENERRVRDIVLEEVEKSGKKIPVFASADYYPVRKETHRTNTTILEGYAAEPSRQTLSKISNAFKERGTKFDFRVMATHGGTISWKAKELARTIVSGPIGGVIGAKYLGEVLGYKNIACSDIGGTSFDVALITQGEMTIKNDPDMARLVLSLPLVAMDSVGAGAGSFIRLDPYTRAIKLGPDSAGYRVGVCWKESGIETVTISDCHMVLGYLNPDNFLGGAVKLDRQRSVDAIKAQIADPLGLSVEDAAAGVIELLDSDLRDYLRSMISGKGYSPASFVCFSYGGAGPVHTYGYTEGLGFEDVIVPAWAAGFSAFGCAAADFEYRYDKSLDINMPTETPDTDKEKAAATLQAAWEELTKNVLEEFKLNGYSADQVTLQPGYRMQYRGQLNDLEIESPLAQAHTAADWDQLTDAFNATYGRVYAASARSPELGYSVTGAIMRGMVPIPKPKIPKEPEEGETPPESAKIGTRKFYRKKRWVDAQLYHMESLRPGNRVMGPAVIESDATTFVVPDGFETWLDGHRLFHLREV
T2 sequence (Q8RM02 2-168 partner limits assumed): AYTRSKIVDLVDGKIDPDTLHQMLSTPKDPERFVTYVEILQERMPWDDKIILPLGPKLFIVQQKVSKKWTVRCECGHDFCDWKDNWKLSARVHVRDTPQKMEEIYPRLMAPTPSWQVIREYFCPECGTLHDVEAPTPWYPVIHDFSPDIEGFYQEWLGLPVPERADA
Procedure: Assays were performed in 2 mL (1 cm path length) quartz cuvettes that had been modified by fusing a serum bottle-style quartz top (7×13 mm at mouth), allowing the cuvettes to be sealed with a red rubber serum stopper. […] The addition of […] (3 U) and NADH (0.2 mM) allowed acetoacetate formation to be coupled to the oxidation of NADH. […] The reaction was monitored by measuring the decrease in absorbance at 340 nm (∈340 of 6.22 mM^−·cm^−1 for NADH) over time in an Agilent Technologies (Palo Alto, Calif.) model 8453 UV-Visible Spectroscopy System containing a thermostat-controlled cell holder at 30° C.

## CCC(=O)CC [3-Pentanone]
S-ADH from C. boidinii
  Relative S-ADH Activity (%) C. boidinii, ketone reduction: 60%
S-ADH from T. brockii
  Relative S-ADH Activity (%) T. brockii, ketone reduction: 49%
[1]
  Relative S-ADH Activity (%) X. Py2, ketone reduction: 180%
S-ADH from strain IP-1
  Relative S-ADH Activity (%) IP-1, ketone reduction: 5%
[2]
  Relative S-ADH Activity (%) JOB 5, ketone reduction: 26%

## CCCCCO [1-Pentanol]
S-ADH from C. boidinii
  Relative S-ADH Activity (%) C. boidinii, alcohol oxidation: 8%
[1]
  specific activity, alcohol oxidation: No activity

## CO [methanol]
[1]; saturating acetone, alcohol at about 13-fold over the Km value for acetone, data not shown
  inhibition of S-ADH activity: no inhibition was observed

## NC(=O)C1=CN([C@@H]2O[C@H](COP(=O)(O)OP(=O)(O)OC[C@H]3O[C@@H](n4cnc5c(N)ncnc54)[C@H](OP(=O)(O)O)[C@@H]3O)[C@@H](O)[C@H]2O)C=CC1 [NADPH, nicotinamide adenine dinucleotide phosphate, reduced form]
[1]; data not shown
  ability to serve as electron donor in acetone reduction assays: not

## CCCC(C)=O [2-Pentanone]
S-ADH from C. boidinii
  Relative S-ADH Activity (%) C. boidinii, ketone reduction: 16%
S-ADH from T. brockii
  Relative S-ADH Activity (%) T. brockii, ketone reduction: 59%
[1]
  Relative S-ADH Activity (%) X. Py2, ketone reduction: 198%
S-ADH from strain IP-1
  Relative S-ADH Activity (%) IP-1, ketone reduction: 44%
[2]
  Relative S-ADH Activity (%) JOB 5, ketone reduction: 185%

## NC(=O)C1=CN([C@@H]2O[C@H](COP(=O)(O)OP(=O)(O)OC[C@H]3O[C@@H](n4cnc5c(N)ncnc54)[C@H](O)[C@@H]3O)[C@@H](O)[C@H]2O)C=CC1 [NADH, nicotinamide adenine dinucleotide, reduced form]
[1]; acetone at fixed saturating concentration, read-out: Km for NADH
  Km: 5.1 ± 0.4 µM
[1]; data not shown
  ability to serve as electron donor in acetone reduction assays: could serve as the electron donor

## CCCCO [1-Butanol]
S-ADH from C. boidinii
  Relative S-ADH Activity (%) C. boidinii, alcohol oxidation: 6%
[1]
  Relative S-ADH Activity (%) X. Py2, alcohol oxidation: 7%
  specific activity, alcohol oxidation: 1.7±0.2 μmol alcohol oxidized min^−1mg^−1 protein
[3]
  activity as substrate and inhibition of acetone carboxylation activity: not active nor did they inhibit acetone carboxylation activity
S-ADH from strain IP-1
  Relative S-ADH Activity (%) IP-1, alcohol oxidation: 2%
[2]
  Relative S-ADH Activity (%) JOB 5, alcohol oxidation: 10%

## CCCC(C)O (stereo not drawn) [2-Pentanol]
S-ADH from C. boidinii
  Relative S-ADH Activity (%) C. boidinii, alcohol oxidation: 22%
S-ADH from T. brockii; alcohol oxidation rates, pH 7.6, 2.5 mM substrate, 0.2 mM NADP+, 2-propanol = 100, NA = no activity detected
  Relative S-ADH Activity (%) T. brockii, alcohol oxidation: 38%
[1]
  Relative S-ADH Activity (%) X. Py2, alcohol oxidation: 157%
S-ADH from strain IP-1
  Relative S-ADH Activity (%) IP-1, alcohol oxidation: 18%
[2]
  Relative S-ADH Activity (%) JOB 5, alcohol oxidation: 68%
